From ChEMBL document CHEMBL1201862, “PubChem BioAssay data set” (2004)
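Assay format: 96-well plates, 48-hour exposure. At the GI50, growth is halved.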 Active and inactive are the calls of the source. Rule as the data show it: active = GI50 up to about 1.1 µM and inactive = higher.

Key:
Assay in all cases: growth of human tumour cells (NCI), 48 h
HOP-62 = test system: HOP-62
SW-620 = test system: SW-620
SF-539 = test system: SF-539
CAKI-1 = test system: CAKI-1
Malme-3M = test system: Malme-3M
MOLT-4 = test system: MOLT-4
HCT-116 = test system: HCT-116
K562 = test system: K562
SK-OV-3 = test system: SK-OV-3
IGROV-1 = test system: IGROV-1
COLO 205 = test system: COLO 205
SNB-19 = test system: SNB-19
UACC-257 = test system: UACC-257
A549 = test system: A549
SK-MEL-28 = test system: SK-MEL-28
NCI-H226 = test system: NCI-H226
HCT-15 = test system: HCT-15
SF-268 = test system: SF-268
U-251 = test system: U-251
SN12C = test system: SN12C

Compound | GI50 (HOP-62) | GI50 (SW-620) | GI50 (SF-539) | GI50 (CAKI-1) | GI50 (Malme-3M) | GI50 (MOLT-4) | GI50 (HCT-116) | GI50 (K562) | GI50 (SK-OV-3) | GI50 (IGROV-1) | GI50 (COLO 205) | GI50 (SNB-19) | GI50 (UACC-257) | GI50 (A549) | GI50 (SK-MEL-28) | GI50 (NCI-H226) | GI50 (HCT-15) [µM] | GI50 (SF-268) | GI50 (U-251) | GI50 (SN12C)
O=c1c2cc(O)c(O)cc2oc2cc(O)c(C3OC(CO)C(O)C(O)C3O)c(O)c12 (stereo not given) | > 100 µM (inactive) | > 100 µM (inactive) | > 100 µM (inactive) | > 100 µM (inactive) | > 100 µM (inactive) | > 100 µM (inactive) | > 100 µM (inactive) | > 100 µM (inactive) | > 100 µM (inactive) | > 100 µM (inactive) | > 100 µM (inactive) | > 100 µM (inactive) | > 100 µM (inactive) | > 100 µM (inactive) | > 100 µM (inactive) | > 100 µM (inactive) | > 100 | > 100 µM (inactive) | > 100 µM (inactive) | 
Nc1nncs1 | 724 µM (inactive) | 1260 µM (inactive) | 3560 µM (inactive) | 1760 µM (inactive) | 3590 µM (inactive) | 695 µM (inactive) | 1500 µM (inactive) | 1320 µM (inactive) | 151 µM (inactive) | 2580 µM (inactive) | 456 µM (inactive) | 3730 µM (inactive) | 705 µM (inactive) | 942 µM (inactive) | 1980 µM (inactive) | 3480 µM (inactive) | 853 | 3950 µM (inactive) | 3100 µM (inactive) | 3040 µM (inactive)
O=C(O)c1cc2ccccc2c(/N=N/c2ccc(S(=O)(=O)O)cc2)c1O | > 100 µM (inactive) | > 100 µM (inactive) | > 100 µM (inactive) | > 100 µM (inactive) | > 100 µM (inactive) | > 100 µM (inactive) | > 100 µM (inactive) | > 100 µM (inactive) | > 100 µM (inactive) | > 100 µM (inactive) | > 100 µM (inactive) | 0.0264 µM (active) | > 100 µM (inactive) | > 100 µM (inactive) | > 100 µM (inactive) | > 100 µM (inactive) | > 100 | > 100 µM (inactive) | > 100 µM (inactive) | > 100 µM (inactive)
CN(C)CCNC(=O)c1cccc2ncc(-c3ccccc3)nc12 | 9.25 µM (inactive) | 5.31 µM (inactive) | 4.51 µM (inactive) | 6.58 µM (inactive) | 13 µM (inactive) | 2.52 µM (inactive) | 4.26 µM (inactive) | 9.02 µM (inactive) | 16.4 µM (inactive) | 20.5 µM (inactive) | 4.11 µM (inactive) | 17.1 µM (inactive) | 14.7 µM (inactive) | 6.9 µM (inactive) | 18.2 µM (inactive) | 7.91 µM (inactive) | 5.37 | 10.6 µM (inactive) | 8.26 µM (inactive) | 6.14 µM (inactive)
Cc1cc(C)c2c(=O)n(CN3CCC(O)(c4ccccc4)CC3)sc2n1 | 34.7 µM (inactive) | 26.8 µM (inactive) | 21.2 µM (inactive) | 43.5 µM (inactive) | 17.6 µM (inactive) | 28.1 µM (inactive) | 39.9 µM (inactive) | 24 µM (inactive) | > 100 µM (inactive) | > 100 µM (inactive) | 39.2 µM (inactive) | > 100 µM (inactive) |  | > 100 µM (inactive) | 56.2 µM (inactive) | > 100 µM (inactive) | 34.7 | 31.1 µM (inactive) | 77.8 µM (inactive) | 25.7 µM (inactive)
CN(/N=C/c1cccc2cccnc12)c1c([N+](=O)[O-])cc([N+](=O)[O-])cc1[N+](=O)[O-] | > 100 µM (inactive) | > 100 µM (inactive) | > 100 µM (inactive) | > 100 µM (inactive) | > 100 µM (inactive) | 11.4 µM (inactive) | > 100 µM (inactive) | 3.56 µM (inactive) | > 100 µM (inactive) | > 100 µM (inactive) | > 100 µM (inactive) | > 100 µM (inactive) | > 100 µM (inactive) | 46.8 µM (inactive) | > 100 µM (inactive) | > 100 µM (inactive) | 13.2 | > 100 µM (inactive) | > 100 µM (inactive) | > 100 µM (inactive)
O=[N+]([O-])/C(C(Cl)=C(Cl)Cl)=C(/Br)SCc1ccccc1 | 15.5 µM (inactive) | 1.63 µM (inactive) | 7.4 µM (inactive) | 2 µM (inactive) | 2.88 µM (inactive) | 0.26 µM (active) | 1.73 µM (inactive) | 0.467 µM (active) | 22 µM (inactive) | 3.71 µM (inactive) | 1.6 µM (inactive) | 10.4 µM (inactive) | 3.18 µM (inactive) | 5.85 µM (inactive) | 1.89 µM (inactive) | 6.07 µM (inactive) | 2.07 | 2.52 µM (inactive) | 4.48 µM (inactive) | 2.27 µM (inactive)
Cc1cccc(C(C)(C)C)c1NC(=O)C(=O)C(c1cnc2ccccc2n1)[N+](=O)[O-] (stereo not given) | > 100 µM (inactive) | > 100 µM (inactive) | > 100 µM (inactive) | > 100 µM (inactive) | > 100 µM (inactive) | 58.1 µM (inactive) | > 100 µM (inactive) | > 100 µM (inactive) | > 100 µM (inactive) | > 100 µM (inactive) | > 100 µM (inactive) | > 100 µM (inactive) | > 100 µM (inactive) | > 100 µM (inactive) | > 100 µM (inactive) | > 100 µM (inactive) | > 100 | > 100 µM (inactive) | > 100 µM (inactive) | > 100 µM (inactive)
CCOC(=O)C(=O)Nc1ccc(C)c(C)c1 | > 100 µM (inactive) | 5.81 µM (inactive) | > 100 µM (inactive) | > 100 µM (inactive) | > 100 µM (inactive) | > 100 µM (inactive) | > 84.7 µM (inactive) | > 73.1 µM (inactive) | > 100 µM (inactive) | > 100 µM (inactive) | 17.1 µM (inactive) | > 100 µM (inactive) | > 100 µM (inactive) | > 100 µM (inactive) | > 100 µM (inactive) | > 100 µM (inactive) | > 41.2 | > 100 µM (inactive) | > 100 µM (inactive) | > 100 µM (inactive)
O=[N+]([O-])c1ccc2c(c1)c1nn2CCCCOc2nn(c3ccc([N+](=O)[O-])cc23)CCCCO1 | 0.743 µM (active) |  | > 100 µM (inactive) | > 100 µM (inactive) | > 100 µM (inactive) | > 100 µM (inactive) | > 100 µM (inactive) | > 100 µM (inactive) | > 100 µM (inactive) | > 100 µM (inactive) | > 100 µM (inactive) | > 100 µM (inactive) | > 100 µM (inactive) |  | > 100 µM (inactive) | > 100 µM (inactive) | > 100 | > 100 µM (inactive) | > 100 µM (inactive) | > 100 µM (inactive)
CC(C)c1ccc(/C=C2\CSCC3=C2N=C2SCC(=O)N2C3c2ccc(C(C)C)cc2)cc1 (stereo not given) | > 100 µM (inactive) | > 100 µM (inactive) | > 100 µM (inactive) | > 100 µM (inactive) | 96.4 µM (inactive) | 75.5 µM (inactive) | > 100 µM (inactive) | > 100 µM (inactive) | > 100 µM (inactive) | > 100 µM (inactive) | > 100 µM (inactive) |  | > 100 µM (inactive) | > 100 µM (inactive) | > 100 µM (inactive) | > 100 µM (inactive) | > 100 | > 100 µM (inactive) | 64.3 µM (inactive) | 92.7 µM (inactive)
CCCCNCCCNCCCNC(=O)c1csc(-c2csc(CCNC(=O)C(NC(=O)C(C)C(O)C(C)NC(=O)C(NC(=O)c3nc(C(CC(N)=O)NCC(N)C(N)=O)nc(N)c3C)C(OC3OC(CO)C(O)C(O)C3OC3OC(CO)C(O)C(OC(N)=O)C3O)c3c[nH]cn3)C(C)O)n2)n1 (stereo not given) | 0.174 µM (active) | 15.2 µM (inactive) | < 0.01 µM (active) | 0.362 µM (active) | 0.294 µM (active) | 2.07 µM (inactive) | 0.0998 µM (active) | 10.1 µM (inactive) | 4.06 µM (inactive) | 4.04 µM (inactive) | 9.44 µM (inactive) | 6.89 µM (inactive) | 14.3 µM (inactive) | 0.386 µM (active) | 13.6 µM (inactive) | 0.175 µM (active) | 24.9 | 0.253 µM (active) | 0.489 µM (active) | 2.21 µM (inactive)
C[C@]12CC[C@H]3[C@@H](CC=C4C[C@@H](O)CC[C@@]43C)[C@@H]1C/C(=C\c1ccncc1)[C@@H]2O | 29.9 µM (inactive) | 31.1 µM (inactive) | 16.9 µM (inactive) | 18.1 µM (inactive) | 22.6 µM (inactive) | 9.77 µM (inactive) | 18.7 µM (inactive) | 15.8 µM (inactive) | 28.3 µM (inactive) | 21.8 µM (inactive) | 10.6 µM (inactive) | 21.2 µM (inactive) | 17.3 µM (inactive) | 19.7 µM (inactive) | 18.1 µM (inactive) | 17.7 µM (inactive) | 20.9 | 21.2 µM (inactive) | 16.5 µM (inactive) | 17.2 µM (inactive)
c1ccc([P+](c2ccccc2)(c2ccccc2)c2ccc([P+](c3ccccc3)(c3ccccc3)c3ccccc3)c3ccccc23)cc1 | > 100 µM (inactive) | > 100 µM (inactive) | 63.7 µM (inactive) | > 100 µM (inactive) | > 100 µM (inactive) | > 100 µM (inactive) | 40 µM (inactive) | 29.6 µM (inactive) | > 100 µM (inactive) | 94.8 µM (inactive) | 52.7 µM (inactive) | 65 µM (inactive) | 32 µM (inactive) | 70.1 µM (inactive) | > 100 µM (inactive) | > 100 µM (inactive) | > 100 | > 100 µM (inactive) | 35.7 µM (inactive) | > 100 µM (inactive)
